Assay [1] has as its system L540cy (Hodgkin's lymphoma). In words: Cytotoxicity (CellTiter-Glo) assay, L540cy. The settings on record: read-out: IC50, Cytotoxicity L540cy. In kind it is cell-based. Here is the method:
(§1) Example 99: Binding and cytoxicity of NAMPTi compounds. NAMPTi compounds and derivatives thereof bearing functional groups on their NAMPT Tail (TN) Units for covalent attachment as a NAMPT Drug Unit to a Linker Unit of a Drug Linker compound or Ligand Drug Conjugate were evaluated for binding to enzymatically competent NAMPT using a fluorescence polarization assay as described in Example X, and for cytotoxicity using the CellTiter-Glo™ assay as described in Example XX. […] In vitro cytotoxicities were more varied, with differences in membrane permeability potentially influencing the observed IC50 values. Tighter-binding compounds determined from the polarization assay representation various NAMPT Head Unit classes were selected for further elaboration into drug linker moieties within Drug Linker compounds and Ligand Drug Conjugates. Those elaborations employed carbamate or benzyl ether functional groups or methylene-alkoxy carbamate (MAC) units for covalent attachment of the NAMPT Drug Unit to a self-immolative Spacer Unit in the Linker Units of the drug linker moieties, depending on the functional group presented by the TN Unit.

Assay [2] relates to HepG2 (hepatocellular carcinoma). The assay can be described thus: Cytotoxicity (CellTiter-Glo) assay, HepG2. In kind it is cell-based. The settings on record: Homo sapiens, HepG2, read-out: IC50, Cytotoxicity HepG2. Here is the method:
as §1

In assay [3] the test system is BxPC-3 (pancreatic adenocarcinoma). In words: Cytotoxicity (CellTiter-Glo) assay, BxPC-3. In kind it is cell-based. The conditions noted are these: Homo sapiens, BXPC-3, read-out: IC50, Cytotoxicity BxPC-3. Here is the method:
as §1

The target in another assay is T1, NAMPT (Homo sapiens, UniProt P43490).
T1 construct: made in house; host or cells: E. coli (pET28a vector, Novagen)
T1 sequence (P43490 whole entry): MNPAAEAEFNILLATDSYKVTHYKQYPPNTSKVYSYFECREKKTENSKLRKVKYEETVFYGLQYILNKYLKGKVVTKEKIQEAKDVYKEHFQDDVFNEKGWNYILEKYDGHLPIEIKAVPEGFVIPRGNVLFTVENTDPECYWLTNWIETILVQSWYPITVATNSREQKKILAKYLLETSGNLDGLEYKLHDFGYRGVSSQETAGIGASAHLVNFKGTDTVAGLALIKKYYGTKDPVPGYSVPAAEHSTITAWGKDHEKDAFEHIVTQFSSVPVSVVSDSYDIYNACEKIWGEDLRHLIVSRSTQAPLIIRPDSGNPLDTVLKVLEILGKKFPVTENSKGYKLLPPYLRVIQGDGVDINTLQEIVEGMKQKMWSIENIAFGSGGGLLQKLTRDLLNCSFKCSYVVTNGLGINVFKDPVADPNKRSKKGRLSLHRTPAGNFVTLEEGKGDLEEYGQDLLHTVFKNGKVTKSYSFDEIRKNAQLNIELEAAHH
The assay can be described thus: Fluorescence polarization (FP) assay for binding to purified NAMPT. The conditions noted are these: for IC50: NAMPT 120 nM, fluorescent probe 30 nM, 4 hours at room temp.

Assay [4] has as its system MOLM-13 (acute myeloid leukemia). In words: Cytotoxicity (CellTiter-Glo) assay, MOLM-13. The class given is cell-based. The settings on record: Homo sapiens, MOLM-13, read-out: IC50, Cytotoxicity MOLM-13. The procedure:
as §1

The values below come from patent publication US20240016953A1, “TARGETED DELIVERY OF NICOTINAMINDE ADENINE DINUCLEOTIDE SALVAGE PATHWAY INHIBITORS” (Seagen Inc., priority 2016, published 2024).

Regarding `O=C(CCCCCCCNc1c(Nc2ccncc2)c(=O)c1=O)N1CC(O)C1` [compound 68], the IC50 in assay [1] came out at 1000 nM; in assay [2] it was 1000 nM; in assay [3] it was 1000 nM; at NAMPT, 27 nM; in assay [4], 811 nM.
The compound `O=C(/C=C/c1cccnc1)NCCCCC1CCN(C(=O)c2cccc(OCCO)c2)CC1` [compound 9, (E)-N-(4-(1-(3-(2-Hydroxyethoxy)Benzoyl)Piperidin-4-Yl)Butyl)-3-(Pyridin-3-Yl)Acrylamide] displayed an IC50 on NAMPT of 80 nM.
For `N#CN=C(NCCCCCCOc1ccc(Cl)cc1)Nc1ccncc1` [CHS-828, reference compound], the IC50 in assay [1] turned out to be 2.22 nM; in assay [2] it was 1.16 nM; in assay [3] it was 8.02 nM; in assay [4], 4.62 nM.
On to `O=C(CCCCCCNc1c(Nc2ccncc2)c(=O)c1=O)N(OCCN1CCOCC1)C1CCCCC1` [compound 52, reference compound], for which the IC50 in assay [1] came out at 4.76 nM; in assay [2] it was 8.75 nM; in assay [3], 39 nM; on NAMPT, 41 nM; in assay [4] it was 5.26 nM.
In the case of `N#C/N=C(\NCCCCCCCC(=O)N(CCO)Cc1ccco1)Nc1ccncc1` [compound 81, (E)-8-(2-Cyano-3-(Pyridin-4-Yl)Guanidino)-N-(Furan-2-Ylmethyl)-N-(2-Hydroxyethyl)Octanamide], the IC50 came to 1.6 nM in assay [1]; 6.44 nM in assay [2]; 17.7 nM in assay [3]; 24 nM on NAMPT; 2.07 nM in assay [4].
Turning to `CCN(CCON(C(=O)CCCCCCNc1c(Nc2ccncc2)c(=O)c1=O)C1CCCCC1)C(=O)c1cccc(N)c1` [compound 60], the IC50 came out at 31 nM in assay [1]; 35 nM in assay [2]; 126 nM in assay [3]; 62 nM at NAMPT; 8 nM in assay [4].
Turning to `Nc1ccccc1C(=O)N1CCC(CCCCNC(=O)/C=C/c2cccnc2)CC1` [compound 5, (E)-N-(4-(1-(2-Aminobenzoyl)Piperidin-4-Yl)Butyl)-3-(Pyridin-3-Yl)Acrylamide], the IC50 was found to be 35 nM in assay [1]; 1000 nM in assay [2]; 694 nM in assay [3]; 101 nM on NAMPT; 40 nM in assay [4].
Regarding `N#C/N=C(\NCCCCCCCC(=O)N1CCC(O)CC1)Nc1ccncc1` [compound 82, (E)-2-Cyano-1-(8-(4-Hydroxypiperidin-1-Yl)-8-Oxooctyl)-3-(Pyridin-4-Yl)Guanidine], the IC50 in assay [1] worked out at 39 nM; in assay [2], 25 nM; in assay [3], 169 nM; in assay [4], 10 nM.
Consider `O=C(CCCCCCCNc1c(Nc2ccncc2)c(=O)c1=O)N1CCC(O)CC1` [compound 67], for which the IC50 stood at 265 nM in assay [1]; 948 nM in assay [2]; 1000 nM in assay [3]; 16 nM on NAMPT; 108 nM in assay [4].
The compound `O=C(/C=C/c1cccnc1)NCCCCC1CCN(C(=O)c2ccc(OCCO)cc2)CC1` [compound 10, (E)-N-(4-(1-(4-(2-Hydroxyethoxy)Benzoyl)Piperidin-4-Yl)Butyl)-3-(Pyridin-3-Yl)Acrylamide] had an IC50 at NAMPT of 91 nM.
For `Nc1cccc(C(=O)N2CCC(CCCCNC(=O)/C=C/c3cccnc3)CC2)c1` [compound 3], the IC50 amounted to 8.5 nM in assay [1]; 8 nM in assay [2]; 38.5 nM in assay [3]; 40 nM at NAMPT; 7 nM in assay [4].
Turning to `O=C(/C=C/c1cccnc1)NCCCCC1CCN(C(=O)c2cccc(O)c2)CC1` [compound 6, (E)-N-(4-(1-(3-Hydroxybenzoyl)Piperidin-4-Yl)Butyl)-3-(Pyridin-3-Yl)Acrylamide], the IC50 in assay [1] worked out at 20 nM; in assay [2], 29 nM; in assay [3], 193 nM; at NAMPT, 36 nM; in assay [4], 8 nM.
On the same counts, the results for `CN(CC1(CO)CCCC1)C(=O)CCCCCCCN/C(=N\C#N)Nc1ccncc1` [compound 80, (E)-8-(2-Cyano-3-(Pyridin-4-Yl)Guanidino)-N-((1-(Hydroxymethyl)Cyclopentyl)Methyl)-N-Methyloctanamide] are 0.78 nM, 1.08 nM, 6.12 nM, 17 nM and 1.63 nM.
At NAMPT, `O=C(/C=C/c1cccnc1)NCCCCC1CCN(C(=O)c2ccc(O)cc2)CC1` [compound 7, (E)-N-(4-(1-(4-Hydroxybenzoyl)Piperidin-4-Yl)Butyl)-3-(Pyridin-3-Yl)Acrylamide] yielded an IC50 of 79 nM.
Take `CN(CCO)C(=O)CCCCCCCN/C(=N\C#N)Nc1ccncc1` [compound 83, (E)-8-(2-Cyano-3-(Pyridin-4-Yl)Guanidino)-N-(2-Hydroxyethyl)-N-Methyloctanamide]: the IC50 in assay [1] came to 51.2 nM; in assay [2], 75.4 nM; in assay [3] it was 886 nM; at NAMPT, 32 nM; in assay [4], 153 nM.
On the same counts, the results for `CN(CC1(CO)CCCC1)C(=O)CCCCCCCNc1c(Nc2ccncc2)c(=O)c1=O` [compound 69, 8-((3,4-Dioxo-2-(Pyridin-4-Ylamino)Cyclobut-1-En-1-Yl)Amino)-N-((1-(Hydroxymethyl)Cyclopentyl)Methyl)-N-Methyloctanamide] are 9.12 nM, 12.5 nM, 96.9 nM, 35 nM and 18 nM.
With `O=C(/C=C/c1cccnc1)NCCCCC1CCN(C(=O)c2ccccc2O)CC1` [compound 8, (E)-N-(4-(1-(2-Hydroxybenzoyl)Piperidin-4-Yl)Butyl)-3-(Pyridin-3-Yl)Acrylamide], the IC50 in assay [1] turned out to be 87.3 nM; in assay [2], 221 nM; in assay [3], 643 nM; at NAMPT, 101 nM; in assay [4], 99 nM.
The compound `Nc1ccc(C(=O)N2CCC(CCCCNC(=O)/C=C/c3cccnc3)CC2)cc1` [compound 4, (E)-N-(4-(1-(4-Aminobenzoyl)Piperidin-4-Yl)Butyl)-3-(Pyridin-3-y1)Acrylamide] yielded an IC50 at NAMPT of 114 nM.
Regarding `O=C(CCCCCCCNc1c(Nc2ccncc2)c(=O)c1=O)N(CCO)Cc1ccco1` [compound 66], the IC50 is 22.5 nM in assay [1]; 59.8 nM in assay [2]; 209 nM in assay [3]; 24 nM at NAMPT; 26.9 nM in assay [4].
On to `CN(CCON(C(=O)CCCCCCNC(=O)Nc1ccncc1)C1CCCCC1)C(=O)c1cccc(N)c1` [compound 43, 3-Amino-N-(2-((N-Cyclohexyl-7-(3-(Pyridin-4-Yl)Ureido)-Heptanamido)Oxy)Ethyl)-N-Methylbenzamide], for which the IC50 came out at 3 nM in assay [1]; 4 nM in assay [2]; 8 nM in assay [3]; 82 nM at NAMPT; 6 nM in assay [4]. In addition, the “Change in NAMPT enzyme binding on modification of the TN Unit, relative to parent NAMPTi compound” value at NAMPT (FP assay, in words) is “significant improvement in binding relative to parent compound 30”.
`O=C(/C=C/c1cccnc1)NCCCCC1CCN(C(=O)c2ccccc2)CC1` [FK-866, reference compound]: the IC50 in assay [1] amounted to 7.32 nM; in assay [2], 5.45 nM; in assay [3], 36.2 nM; in assay [4], 6.64 nM.
Consider `CN(CCO)C(=O)CCCCCCCNc1c(Nc2ccncc2)c(=O)c1=O` [compound 72], for which the IC50 was 1000 nM in assay [1]; 1000 nM in assay [2]; 1000 nM in assay [3]; 29 nM on NAMPT; 807 nM in assay [4].
